In patent US10899774B2, “IRAK4 modulators” (Genentech, Inc., priority 2017, dated 2021):
Counter-ions that a name gives are not always drawn.

Target: human IRAK4 (Homo sapiens (Human), UniProt Q9NWZ3)
Assay: IRAK4 kinase inhibition, Transcreener fluorescence polarization (ADP detection)
Type: biochemical
Conditions: recombinant full-length His6-IRAK4; 1.25 nM IRAK4; 125 μM ATP; 90 min; ATP Km 642 μM
Procedure: Compounds were assayed for inhibition of human IRAK4 and IRAK1 catalytic activity using recombinant enzyme produced from insect cells. Full-length IRAK4 protein, carrying an N-terminal His6-Tag, was obtained from Life Technologies (Carlsbad, Calif., USA). The IRAK1 construct was produced internally and was comprised of IRAK1 residues Arg194 to Ser712, preceded by an NH2-terminal His6 tag and the coding sequence for glutathione-S-transferase.
Kinase activities were assayed using the Transcreener-Fluorecescence polarization platform (BelBrook Labs, Madison, Wis., USA) that measures amounts of the reaction product, ADP.
384 well assay plates spotted with compound received 4 μl of a 2× substrate (ATP+peptide) mix in reaction buffer, followed by 4 μl of 2× enzyme diluted in reaction buffer.

human IRAK4, sequence (Q9NWZ3 whole entry): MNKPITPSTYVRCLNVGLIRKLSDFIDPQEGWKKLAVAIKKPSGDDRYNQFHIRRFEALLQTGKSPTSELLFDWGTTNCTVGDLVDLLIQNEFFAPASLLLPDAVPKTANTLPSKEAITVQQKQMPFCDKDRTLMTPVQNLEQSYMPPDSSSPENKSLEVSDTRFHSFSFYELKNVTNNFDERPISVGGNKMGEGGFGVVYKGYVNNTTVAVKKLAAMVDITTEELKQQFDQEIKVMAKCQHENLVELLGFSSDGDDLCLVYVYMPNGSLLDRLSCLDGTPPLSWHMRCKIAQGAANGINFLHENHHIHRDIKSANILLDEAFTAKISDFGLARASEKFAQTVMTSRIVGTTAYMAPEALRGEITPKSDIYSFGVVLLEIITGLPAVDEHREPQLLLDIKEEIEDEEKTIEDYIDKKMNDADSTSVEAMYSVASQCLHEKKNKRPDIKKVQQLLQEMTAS

For CC1(C)Cc2cc(NC(=O)c3csc(N4CCOCC4)n3)c(N3CCOCC3)cc2O1 [Example 36, N-(2,2-Dimethyl-6-morpholino-2,3-dihydrobenzofuran-5-yl)-2-morpholinothiazole-4-carboxamide], the Ki was 0.0038 µM.

Compound CC1(C)Cc2cc(NC(=O)c3coc(N4CCOCC4)n3)c(N3CCOCC3)cc2O1 [Example 37, N-(2,2-Dimethyl-6-morpholino-2,3-dihydrobenzofuran-5-yl)-2-morpholinooxazole-4-carboxamide] has a Ki of 0.0052 µM.

CC1(C)Cc2cc(NC(=O)c3coc(C4CC4)n3)c(N3CCOCC3)cc2O1 [Example 38, 2-Cyclopropyl-N-(2,2-dimethyl-6-morpholino-2,3-dihydrobenzofuran-5-yl)oxazole-4-carboxamide] was tested, and the Ki was 0.0074 µM.

Compound CC1(C)Cc2cc(NC(=O)c3cccc4[nH]c(CO)nc34)c(N3CCOCC3)cc2O1 [Example 40, N-(2,2-Dimethyl-6-morpholino-2,3-dihydrobenzofuran-5-yl)-2-(hydroxymethyl)-1H-benzo[d]imidazole-4-carboxamide] has a Ki of 0.028 µM.

CC1(C)Cc2cc(NC(=O)c3coc(C(C)(C)C)n3)c(N3CCOCC3)cc2O1 [Example 41, 2-(tert-Butyl)-N-(2,2-dimethyl-6-morpholino-2,3-dihydrobenzofuran-5-yl)oxazole-4-carboxamide] was tested, and the Ki was 0.043 µM.

With CC1(C)Cc2cc(NC(=O)c3cscn3)c(N3CCOCC3)cc2O1 [Example 42, N-(2,2-Dimethyl-6-morpholino-2,3-dihydrobenzofuran-5-yl)thiazole-4-carboxamide] the Ki was 0.098 µM.

With CCc1cnc(C(=O)Nc2cc3c(cc2N2CCOCC2)OC(C)(C)C3)[nH]1 [Example 43, N-(2,2-Dimethyl-6-morpholino-2,3-dihydrobenzofuran-5-yl)-5-ethyl-1H-imidazole-2-carboxamide] the Ki was 0.11 µM.

In the case of Cc1cnc(C(=O)Nc2cc3c(cc2N2CCOCC2)OC(C)(C)C3)[nH]1 [Example 44, N-(2,2-Dimethyl-6-morpholino-2,3-dihydrobenzofuran-5-yl)-5-methyl-1H-imidazole-2-carboxamide], the Ki is reported as 0.29 µM.

Compound CC1(C)Cc2cc(NC(=O)c3n[nH]c4cccnc34)c(N3CCOCC3)cc2O1 [Example 45, N-(2,2-Dimethyl-6-morpholino-2,3-dihydrobenzofuran-5-yl)-1H-pyrazolo[4,3-b]pyridine-3-carboxamide] has a Ki of 0.49 µM.

CC1(C)Cc2cc(NC(=O)c3ccncn3)c(N3CCOCC3)cc2O1 [Example 46, N-(2,2-Dimethyl-6-morpholino-2,3-dihydrobenzofuran-5-yl)pyrimidine-4-carboxamide] showed a Ki of 0.14 µM.

CC1(C)Cc2cc(NC(=O)c3ncc(C(C)(C)C)[nH]3)c(N3CCOCC3)cc2O1 [Example 47, 5-(tert-Butyl)-N-(2,2-dimethyl-6-morpholino-2,3-dihydrobenzofuran-5-yl)-1H-imidazole-2-carboxamide] gave a Ki of 0.2 µM.

For CC1(C)Cc2cc(NC(=O)c3ccco3)c(N3CCOCC3)cc2O1 [Example 48, N-(2,2-Dimethyl-6-morpholino-2,3-dihydrobenzofuran-5-yl)furan-2-carboxamide], the Ki was 0.22 µM.

CC(=O)Nc1cc(-n2ccc(C(=O)Nc3cc4c(cc3N3CCOCC3)OC(C)(C)C4)n2)ccn1 [Example 49, 1-(2-Acetamido-4-pyridyl)-N-(2,2-dimethyl-6-morpholino-3H-benzofuran-5-yl)pyrazole-3-carboxamide] was tested, and the Ki was 0.0076 µM.

With Cn1nnc2c(C(=O)Nc3cc4c(cc3N3CCOCC3)OC(C)(C)C4)cncc21 [Example 50, N-(2,2-Dimethyl-6-morpholino-3H-benzofuran-5-yl)-3-methyl-triazolo[4,5-c]pyridine-7-carboxamide] the Ki was 0.078 µM.

Compound Cc1nc(C(=O)Nc2cc3c(cc2N2CCOCC2)OC(C)(C)C3)co1 [Example 51, N-(2,2-Dimethyl-6-morpholino-3H-benzofuran-5-yl)-2-methyl-oxazole-4-carboxamide] has a Ki of 0.018 µM.

With Cn1nnc2c(C(=O)Nc3cc4c(cc3N3CCOCC3)OC(C)(CO)C4)cncc21 (stereo not shown) [Example 52, N-(2-(Hydroxymethyl)-2-methyl-6-morpholino-2,3-dihydrobenzofuran-5-yl)-3-methyl-3H-[1,2,3]triazolo[4,5-c]pyridine-7-carboxamide] the Ki was 0.1 µM.

CCn1nnc2c(C(=O)Nc3cc4c(cc3N3CCOCC3)OC(C)(C)C4)cncc21 [Example 53, N-(2,2-Dimethyl-6-morpholino-3H-benzofuran-5-yl)-3-ethyl-triazolo[4,5-c]pyridine-7-carboxamide] was tested, and the Ki was 0.22 µM.

CC1(C)COc2cc(C(=O)Nc3cc4c(cc3N3CCOCC3)OC(C)(CO)C4)nn2C1 (stereo not shown) [Example 54, N-[2-(Hydroxymethyl)-2-methyl-6-morpholino-3H-benzofuran-5-yl]-6,6-dimethyl-5,7-dihydropyrazolo[5,1-b][1,3]oxazine-2-carboxamide] was tested, and the Ki was 0.81 µM.

With CC1COc2c(C(=O)Nc3cc4c(cc3N3CCOCC3)OC(C)(CO)C4)cnn2C1 (stereo not shown) [Example 55, N-[2-(Hydroxymethyl)-2-methyl-6-morpholino-3H-benzofuran-5-yl]-6-methyl-6,7-dihydro-5H-pyrazolo[5,1-b][1,3]oxazine-3-carboxamide] the Ki was 0.39 µM.

Compound COc1ccc(-n2ccc(C(=O)Nc3cc4c(cc3N3CCOCC3)OC(C)(C)C4)n2)cn1 [Example 58, N-(2,2-Dimethyl-6-morpholino-3H-benzofuran-5-yl)-1-(6-methoxy-3-pyridyl)pyrazole-3-carboxamide] has a Ki of 0.029 µM.

With CC1(C)Cc2cc(NC(=O)c3ccn(-c4ccnc(CO)c4)n3)c(N3CCOCC3)cc2O1 [Example 59, N-(2,2-Dimethyl-6-morpholino-3H-benzofuran-5-yl)-1-[2-(hydroxymethyl)-4-pyridyl]pyrazole-3-carboxamide] the Ki was 0.0016 µM.

COc1cc(-n2ccc(C(=O)Nc3cc4c(cc3N3CCOCC3)OC(C)(C)C4)n2)ccn1 [Example 60, N-(2,2-Dimethyl-6-morpholino-3H-benzofuran-5-yl)-1-(2-methoxy-4-pyridyl)pyrazole-3-carboxamide] was tested, and the Ki was 0.0082 µM.

CC1(C)Cc2cc(NC(=O)c3ccn(-c4ccnc(C(C)(C)O)c4)n3)c(N3CCOCC3)cc2O1 [Example 61, N-(2,2-Dimethyl-6-morpholino-3H-benzofuran-5-yl)-1-[2-(1-hydroxy-1-methyl-ethyl)-4-pyridyl]pyrazole-3-carboxamide] showed a Ki of 0.0046 µM.

With CC1(C)Cc2cc(NC(=O)c3ccn(-c4ccnc(NCC(F)(F)F)c4)n3)c(N3CCOCC3)cc2O1 [Example 62, N-(2,2-Dimethyl-6-morpholino-3H-benzofuran-5-yl)-1-[2-(2,2,2-trifluoroethylamino)-4-pyridyl]pyrazole-3-carboxamide] the Ki was 0.017 µM.

For CC1(C)Cc2cc(NC(=O)c3ccn(-c4ccnc(C#N)c4)n3)c(N3CCOCC3)cc2O1 [Example 63, 1-(2-Cyano-4-pyridyl)-N-(2,2-dimethyl-6-morpholino-3H-benzofuran-5-yl)pyrazole-3-carboxamide], the Ki was 0.016 µM.

Work on CC1(C)Cc2cc(NC(=O)c3cncc4c3nnn4CCO)c(N3CCOCC3)cc2O1 [Example 64, N-(2,2-Dimethyl-6-morpholino-3H-benzofuran-5-yl)-3-(2-hydroxyethyl)triazolo[4,5-c]pyridine-7-carboxamide] yielded a Ki of 0.35 µM.

Cc1cn2cccc(C(=O)Nc3cc4c(cc3N3CCOCC3)OC(C)(C)C4)c2n1 [Example 65, N-(2,2-Dimethyl-6-morpholino-3H-benzofuran-5-yl)-2-methyl-imidazo[1,2-a]pyridine-8-carboxamide] showed a Ki of 0.27 µM.

CC1(C)Cc2cc(NC(=O)c3ccn(-c4ccc(=O)[nH]c4)n3)c(N3CCOCC3)cc2O1 [Example 66, N-(2,2-Dimethyl-6-morpholino-3H-benzofuran-5-yl)-1-(6-oxo-1H-pyridin-3-yl)pyrazole-3-carboxamide] showed a Ki of 0.014 µM.

CC1(CO)Cc2cc(NC(=O)c3csc4cc(C#N)cnc34)c(N3CCOCC3)cc2O1 (stereo not shown) [Example 69, 6-Cyano-N-(2-(hydroxymethyl)-2-methyl-6-morpholino-2,3-dihydrobenzofuran-5-yl)thieno[3,2-b]pyridine-3-carboxamide Formate] gave a Ki of 0.028 µM.

CC1(C)Cc2cc(NC(=O)c3ccn(-c4cc[nH]c(=O)c4)n3)c(N3CCOCC3)cc2O1 [Example 70, N-(2,2-Dimethyl-6-morpholino-3H-benzofuran-5-yl)-1-(2-oxo-1H-pyridin-4-yl)pyrazole-3-carboxamide] gave a Ki of 0.0027 µM.

CC1(C)Cc2cc(NC(=O)c3cnn4ccc(=O)[nH]c34)c(N3CCOCC3)cc2O1 [Example 71, N-(2,2-dimethyl-6-morpholino-3H-benzofuran-5-yl)-5-oxo-4H-pyrazolo[1,5-a]pyrimidine-3-carboxamide] gave a Ki of 0.93 µM.
